US11890317B2, “Cell-protecting composition containing cyclo histidine-proline as active ingredient” (NovMetaPharma Co., Ltd., priority 2016, dated 2024)

Columns and labels:
[1] = tested on: kidney cells (LLC-PK1 cells); test: Inhibition of gentamicin (GM)-induced apoptosis of kidney cells, cell viability by cell counting kit-8; format: cell-based
Procedure: Specifically, the cyclo histidine-proline (CHP) was produced by requesting only a target spec (99% purity) from a peptide manufacturer (Bachem; Bubendorf, Switzerland). The gentamycin was purchased from Sigma Chemical Co. (St. Louis, Mo., USA). The kidney cells (LLC-PK1 cells) were purchased from the American Type Culture Collection (ATCC; Manassas, VA, USA). The present inventors simultaneously treated and cultured the kidney cell (LLC-PK1 cell) with CHP 0.1, 1, 5 or 10 mg/mL respectively together with GM 5 mg/mL for 6 hours (FIG. 1A).
(§1) Further, the present inventors pre-treated and pre-cultured the kidney cell (LLC-PK1 cell) with CHP 0.1, 1, 5 or 10 mg/mL for 2 hours and subsequently post-treated and post-cultured the kidney cell (LLC-PK1 cell) with GM 5 mg/mL for 4 hours (FIG. 1B). The cell viability was analyzed using cell counting kit-8 (Dojindo Laboratories; Kumamoto, Japan). Subsequently, the cell viability was measured with a microplate reader (Molecular Devices, LLC; Sunnyvale, CA, USA).

[2] = tested on: liver cells (Chang liver cells); test: Inhibition of acetaminophen (APAP)-induced apoptosis of liver cells, cell viability by cell counting kit-8; format: cell-based
Procedure: Specifically, the acetaminophen was purchased from Sigma Chemical Co. (St. Louis, Mo., USA). The liver cells (Chang liver cells) were purchased from the American Type Culture Collection (ATCC; Manassas, VA, USA). The present inventors simultaneously treated and cultured the liver cell (Chang liver cell) with CHP 0.1, 1, 5 or 10 mg/mL respectively together with APAP 15 mM for 24 hours (FIG. 2A).
as §1, with “liver” for “kidney”, “(Chang liver” for “(LLC-PK1”, “24” for “2”, “APAP 15 mM” for “GM 5 mg/mL”, “24” for “4”, “2B).” for “1B).”

[3] = tested on: SD mice; test: Liver function protection against cisplatin liver toxicity in mice, serum ALT and AST; format: in vivo; conditions: CHP 1, 5 or 10 mg/L in drinking water for 1 week, then cisplatin 7.5 mg/kg i.p., serum after 24 hours
Procedure: To determine the protective effect of CHP on liver toxicity in mice, the present inventors purchased SD mice from Koatech, and the mice were raised under constant conditions (temperature: 23±3° C., relative humidity: 55±10%, daily cycle: 12 hours). Five mice were grouped into one group. We fed water and food to mice in the cage. We adapted the mice for experiments for one week prior to the experiment. After the adaption period, the mice were grouped into five groups.
1 group ingested water and was set as a negative control. […] These 3, 4 and 5 groups were set as liver damage prevention effect groups. The CHP ingestion using drinking water was performed once every two days.
To measure ALT and AST, we collected blood from the abdominal aorta from a mouse. We separated only serum from the blood using a centrifugal separator and analyzed the serum using an automatic analyzer (Hitachi 7180; Tokyo, Japan).
We conducted individual comparisons using the […] post-test thereon.

[4] = tested on: ICR mice; test: Kidney function protection against cisplatin kidney toxicity in mice, serum creatinine; format: in vivo; conditions: CHP 1 mg/kg orally daily for 1 week, then cisplatin 10 mg/kg i.p., serum after 72 hours, FIG. 5
Excerpt: (§2) Five mice were grouped into one group. We fed water and food to mice in the cage. We adapted the mice for experiments for one week prior to the experiment.

[5] = tested on: ICR mice; test: Kidney function protection against cisplatin kidney toxicity in mice, serum BUN; format: in vivo; conditions: CHP 1 mg/kg orally daily for 1 week, then cisplatin i.p., serum after 24 hours, FIG. 6
Excerpt: as §2

In the case of gentamicin [GM, reference compound], the “apoptosis of kidney cells caused by the drug” value ([1]; GM 5 mg/mL) is reported as “induced apoptosis of kidney cells”.
In the case of `CC(=O)Nc1ccc(O)cc1` [APAP, acetaminophen, reference compound], the “apoptosis of liver cells caused by the drug” value ([2]; APAP 15 mM) is reported as “induced apoptosis of liver cells”.
`O=C1N[C@@H](Cc2c[nH]cn2)C(=O)N2CCC[C@@H]12` [CHP, cyclo histidine-proline] was tested, and the “inhibition of gentamicin (GM)-induced apoptosis, kidney cells pre-treated with CHP” value ([1]; CHP 0.1, 1, 5 or 10 mg/mL pre-treatment 2 hours, then GM 5 mg/mL 4 hours, FIG. 1B) was “greatly inhibited”, the “inhibition of apoptosis of kidney cells induced by gentamicin (GM)” value ([1]; CHP 0.1, 1, 5 or 10 mg/mL, GM 5 mg/mL, FIG. 1A and 1B) was “inhibited the apoptosis of kidney cells induced by the gentamicin (GM) in a concentration-dependent manner” and the “inhibition of acetaminophen (APAP)-induced apoptosis, liver cells co-treated with APAP and CHP” value ([2]; CHP 0.1, 1, 5 or 10 mg/mL together with APAP 15 mM for 24 hours, FIG. 2A) was “significantly inhibited”. The “inhibition of apoptosis of liver cells induced by acetaminophen (APAP)” value ([2]; CHP 0.1, 1, 5 or 10 mg/mL, APAP 15 mM, FIG. 2A and 2B) was “inhibited the apoptosis of liver cells induced by the acetaminophen (APAP) in a concentration-dependent manner”, the “cisplatin-induced ALT” value ([3]; FIG. 3) was “significantly reduced” and the “cisplatin-induced AST” value ([3]; FIG. 4) was “significantly reduced”. For the same molecule, the cisplatin-induced creatinine [4] was “significantly reduced” and the “cisplatin-induced BUN” value [5] was “significantly reduced”.
